Measurements published in patent US11370804B2, “Complex of gadolinium and a chelating ligand derived from a diastereoisomerically enriched PCTA and preparation and purification process” (GUERBET, priority 2020, dated 2022).

Experiments:
[1] = decomplexation kinetics (kinetic inertia) in acidic aqueous solution, pH 1.2, 37° C.; assay type: physicochemical; details: same conditions (pH 1.2, 37° C.), comparative
Protocol: Besides, iso4 is the group of isomers which has the best kinetic inertia (also known as kinetic stability) among the four groups isolated by the inventors. Specifically, the inventors evaluated the kinetic inertia of the four groups of isomers by studying their decomplexation kinetics in acidic aqueous solution (pH=1.2), at 37° C. The half-life time values (T1/2) which were determined for each of the groups of isomers are indicated in table 1 below, the half-life time corresponding to the time after which 50% of the amount of complex initially present has been dissociated, according to the following decomplexation reaction (equation 2): […]

[2] = as described in WO 2014/174120 / for comparative purposes; cited from earlier work

Work on `O=C([O-])CN1CCN(CC(=O)[O-])CCN([C@H](CO)[C@H](O)CO)CCN(CC(=O)[O-])CC1.[Gd+3]` (racemic) [gadobutrol] yielded a kinetic inertia [1] of 18 h.
For `O=C([O-])CN1CCN(CC(=O)[O-])CCN(CC(=O)O)CCN(CC(=O)[O-])CC1.[Gd+3]` [DOTA-Gd, gadolinium complex of 1,4,7,10-tetraazacyclododecane-N,N′,N″,N′″-tetraacetic acid], the “log (Ktherm), stability constant” value [2] is given as 25.6 and the kinetic inertia [1] is given as 96 h.
For `CNC(=O)CN(CCN(CCN(CC(=O)[O-])CC(=O)NC)CC(=O)[O-])CC(=O)[O-].[Gd+3]` [gadodiamide], the “kinetic inertia (dissociation, in words)” value [1] was “dissociate instantaneously”.
In the case of `O=C([O-])CN(CCN(CC(=O)[O-])CC(=O)O)CCN(CC(=O)[O-])CC(=O)O.[Gd+3]` [gadopentetate], the “kinetic inertia (dissociation, in words)” value [1] is reported as “dissociate instantaneously”.
